Test systems include A498 renal; A549 NSCLC; HCT-15 colon; HL-60(TB) leukemia; HOP-62 NSCLC; KM12 colon; NCI-H460 lung; SF-539 CNS; SK-MEL-28 melanoma; SK-OV-3 ovarian.
Holding throughout (test): NCI tumour cell line growth inhibition, 48 h

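48-hour exposure; five concentrations; linearly interpolated endpoints. At the GI50, growth is halved. At the TGI there is no net growth.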 Where only a bound is given, the exact number is not on record here.

For `C/C(=N\NS(=O)(=O)c1ccc(C)cc1)c1ccc[n+]([O-])n1`, the TGI was above 100 µM in the test on A498 renal; above 100 µM in the test with A549 NSCLC; above 100 µM in the test on HCT-15 colon; 91 µM with HL-60(TB) leukemia; above 100 µM in the test on HOP-62 NSCLC; above 100 µM with KM12 colon. Also, the TGI in the test on NCI-H460 lung, with SF-539 CNS, in the test on SK-MEL-28 melanoma and in the test with SK-OV-3 ovarian was above 100 µM in each case.

In the case of `S=C(Nc1ccccc1)Nc1[nH]c(=S)sc1-c1nc2ccccc2[nH]1`, the TGI was above 100 µM in the test on A498 renal; above 100 µM with A549 NSCLC; above 100 µM in the test with HCT-15 colon; above 100 µM with HL-60(TB) leukemia; 66.8 µM in the test on HOP-62 NSCLC; above 100 µM in the test with KM12 colon. The TGI was 74.3 µM in the test on SF-539 CNS, above 100 µM in the test with SK-MEL-28 melanoma and 80.9 µM with SK-OV-3 ovarian.

As for `O=C(Cc1nc2ccc(C(=O)c3ccccc3)cc2[nH]c1=O)C(=O)Nc1ccccc1[N+](=O)[O-]`, the TGI in the test on A498 renal, in the test on A549 NSCLC, in the test with HCT-15 colon, with HL-60(TB) leukemia, with KM12 colon and in the test with NCI-H460 lung was above 100 µM throughout. Besides, the TGI in the test on SF-539 CNS, in the test on SK-MEL-28 melanoma and in the test with SK-OV-3 ovarian was above 100 µM throughout.

Turning to `C/C(=C(/c1ccc(O)cc1)c1ccc(OCCN2CCCC2)cc1)c1ccccc1`, the GI50 in the test on A498 renal was 1.67 µM; with A549 NSCLC it was 3.53 µM; in the test with HCT-15 colon, 1.81 µM; in the test with HL-60(TB) leukemia, 2.04 µM; in the test on HOP-62 NSCLC it was 2.1 µM; with KM12 colon, 3.51 µM. Moreover, the GI50 is 2.36 µM in the test on NCI-H460 lung, 1.81 µM in the test with SF-539 CNS, 1.65 µM with SK-MEL-28 melanoma and 3.25 µM in the test with SK-OV-3 ovarian. In addition, the TGI was found to be 8.49 µM in the test with A498 renal; 11 µM in the test with A549 NSCLC; 4.64 µM in the test on HCT-15 colon; 4.97 µM with HL-60(TB) leukemia; 4.54 µM in the test on HOP-62 NSCLC; 13.2 µM with KM12 colon. Also, the TGI in the test with NCI-H460 lung is 5.38 µM; with SF-539 CNS, 3.76 µM; with SK-MEL-28 melanoma it was 3.41 µM; in the test on SK-OV-3 ovarian, 13 µM.

For `CCCC/C(=N\N=C(N)N)c1ccc(F)cc1`, the GI50 is 2.59 µM in the test on A498 renal; 4.66 µM in the test on A549 NSCLC; 2.49 µM in the test on HCT-15 colon; 2.29 µM with HL-60(TB) leukemia; 3.81 µM with HOP-62 NSCLC; 2.79 µM in the test with KM12 colon. In addition, the GI50 was 3.9 µM in the test on NCI-H460 lung, 2.77 µM with SF-539 CNS, 4.21 µM in the test on SK-MEL-28 melanoma and 2.61 µM with SK-OV-3 ovarian. The TGI in the test with A498 renal worked out at 8.08 µM; in the test with A549 NSCLC it was 16.7 µM; in the test on HCT-15 colon, 14.2 µM; with HL-60(TB) leukemia it was 6.09 µM; in the test with HOP-62 NSCLC it was 15.8 µM; in the test with KM12 colon, 14 µM. Moreover, the TGI in the test on NCI-H460 lung was 14.7 µM; in the test on SF-539 CNS, 8.59 µM; in the test with SK-MEL-28 melanoma it was 17.6 µM; in the test with SK-OV-3 ovarian it was 11 µM.

Turning to `COc1cc2c3c(c1OC)-c1ccccc1C(C(OC(C)=O)c1ccccc1)C3N(C)CC2` (centres undefined), the TGI in the test with A498 renal, in the test on A549 NSCLC, in the test with HCT-15 colon, in the test with HL-60(TB) leukemia, in the test on KM12 colon and in the test with NCI-H460 lung was above 100 µM in each case. The TGI in the test on SF-539 CNS, with SK-MEL-28 melanoma and with SK-OV-3 ovarian was above 100 µM in each case.

Regarding `CC1=C(C#N)C(N)=C2C(C)=C(C#N)C(N)=C12`, the TGI in the test with A498 renal, in the test on A549 NSCLC, with HCT-15 colon, in the test with HL-60(TB) leukemia, with HOP-62 NSCLC and in the test on KM12 colon was above 100 µM in each case. The TGI in the test on NCI-H460 lung, in the test with SF-539 CNS and in the test with SK-OV-3 ovarian was above 100 µM throughout.

Take `CCOC(=O)CCC1(C(=O)OC)CCCC1=O` (centres undefined): the TGI in the test with A498 renal, with A549 NSCLC, with HL-60(TB) leukemia, in the test with HOP-62 NSCLC, in the test with KM12 colon and in the test with NCI-H460 lung was above 100 µM each time. Also, the TGI in the test on SF-539 CNS, with SK-MEL-28 melanoma and in the test on SK-OV-3 ovarian was above 100 µM throughout.

Take `CC1CCC(O)C(C(O)CC2CC(=O)N(C)C(=O)C2)C1` (centres undefined): the TGI in the test with A498 renal, with A549 NSCLC, in the test on HL-60(TB) leukemia, in the test on HOP-62 NSCLC, with KM12 colon and in the test with NCI-H460 lung was above 100 µM throughout. Also, the TGI with SF-539 CNS, with SK-MEL-28 melanoma and in the test with SK-OV-3 ovarian was above 100 µM throughout.

For the compound `CN1C(=O)c2cc(Cl)nc3c(NC(=O)c4cccc(Cl)c4)c(Cl)c(NC(=O)c4cccc(Cl)c4)c1c23`, the GI50 is 3.49 µM with A498 renal; 4.14 µM with A549 NSCLC; 0.581 µM in the test with HCT-15 colon; 2.17 µM in the test with HL-60(TB) leukemia; 3.44 µM with KM12 colon; 2.34 µM in the test with NCI-H460 lung. For the same compound, the GI50 with SF-539 CNS is 1.67 µM; with SK-MEL-28 melanoma, 1.78 µM; in the test with SK-OV-3 ovarian it was 4.98 µM. Besides, the TGI worked out at 12.7 µM in the test on A498 renal; 14.8 µM in the test on A549 NSCLC; 1.94 µM in the test with HCT-15 colon; 5.11 µM in the test on HL-60(TB) leukemia; 15.5 µM with KM12 colon; 5.17 µM in the test on NCI-H460 lung. The TGI was determined as 3.39 µM with SF-539 CNS, 3.45 µM with SK-MEL-28 melanoma and 17.4 µM in the test on SK-OV-3 ovarian.

For the compound `COc1ccc([Se]c2ccc(OC)cc2OC)c(OC)c1`, the TGI with A498 renal is 70.3 µM; in the test on A549 NSCLC it was above 100 µM; in the test on HL-60(TB) leukemia, above 100 µM; in the test on KM12 colon it was above 100 µM; in the test on NCI-H460 lung, above 100 µM; in the test on SF-539 CNS, above 100 µM. Further, the values for the TGI in the test on SK-MEL-28 melanoma and in the test on SK-OV-3 ovarian were 77.1 µM and 92.1 µM, respectively.

On to `CCC1OCCN1C(C)C` (centres undefined), for which the TGI in the test on A498 renal, with A549 NSCLC, in the test on HCT-15 colon, in the test with HL-60(TB) leukemia, with KM12 colon and in the test on NCI-H460 lung was above 100 µM in each case. The TGI with SF-539 CNS is above 100 µM; in the test with SK-MEL-28 melanoma, 92.2 µM; with SK-OV-3 ovarian, above 100 µM.
